According to paper PMC10761119, “Phosphorylation-state dependent intraneuronal sorting of Aβ differentially impairs autophagy and the endo-lysosomal system” (Autophagy, 2023):

Tested on: SH-SY5Y cells
Assay: Autophagic flux with tandem reporter GFP-LC3-RFP-LC3Δ
Format: cell-based, human
Conditions: Aβ 1 µM, 24 h; compared to control cells; n = 6, N = 3
Procedure: SH-SY5Y cells were transfected with either GFP-LC3-LC3Δ-RFP or mCherry-GFP-LC3B tandem constructs (0.5 μg/well +1 µl transfection reagent − 24 well plate) with Lipofectamine 2000 (Life Technologies, 11668019) in OptiMEM (Life Technologies, 11058021) in DMEM/F-12, FCS^− PS^− media. After 8 h, FCS^− PS^− media was changed to normal culture media, respectively. Transfection efficiency was around 50–60% in all analyzed coverslips.
SH-SY5Y cells seeded on D1, were treated with Aβ variants (1 μM) on D3 in DMEM/F-12 media without serum and antibiotics. Control treatment included treatment with equal volume of 10 mM NaOH solution used for preparing the Aβ stock solutions, in respective cell culture medium. […]
All images were processed and analyzed using Fiji ImageJ software. […] Distance from the plaque core (Figure 1B) was measured using the concentric circles plugin module. Fluorescence intensity of the green channel (Figure S3A-B), and the number of neurons positive for Aβ signals (Figure S3-D) were quantified using the processing module of Keyence software. […] Intensity of green and red channel for a particular ROI was calculated and ratios of the individual values were computed (Figure 6B and S7A). For computing the number of mCherry^+GFP^± vesicles or per cell (Figure 6D and S7B), cell outline was drawn manually and number of vesicles per cell (nucleus count – DAPI) was calculated. […]

For “non-phosphorylated amyloid-β [npAβ, reference compound]”, the “RFP:GFP ratio (autophagic flux)” value was “tended to increase”.
